Measured values taken from ChEMBL document CHEMBL3232991, “New polyfunctional imidazo[4,5-C]pyridine motifs: synthesis, crystal studies, docking studies and antimicrobial evaluation” (Eur J Med Chem, 2014).
Converted amounts (≈) assume the structure as drawn. The source made the active and inactive calls. The calls are words filed in the database; no cut-off is given here.

Experiments:
Candida albicans [1] = test: Antifungal activity against Candida albicans MTCC 183 assessed as diameter of growth inhibition zone at 500 ug/ml after 4 days by agar disc diffusion method; type: functional
Staphylococcus aureus [2] = test: Antibacterial activity against Staphylococcus aureus MTCC 4102 assessed as diameter of growth inhibition zone at 500 ug/ml after 20 hrs by agar disc diffusion method; type: functional; conditions: MTCC 4102, 20 h, read-out: DIZ
Staphylococcus aureus [3] = test: Antibacterial activity against Staphylococcus aureus MTCC 4102 assessed as diameter of growth inhibition zone at 1000 ug/ml after 20 hrs by agar disc diffusion method; type: functional; conditions: MTCC 4102, 20 h, read-out: DIZ
Saccharomyces cerevisiae [4] = test: Antifungal activity against Saccharomyces cerevisiae NCIM 3044 assessed as diameter of growth inhibition zone at 1000 ug/ml after 4 days by agar disc diffusion method; type: functional
Bacillus cereus [5] = test: Antibacterial activity against Bacillus cereus NCIM 2155 assessed as diameter of growth inhibition zone at 1000 ug/ml after 20 hrs by agar disc diffusion method; type: functional
Escherichia coli [6] = test: Antibacterial activity against Escherichia coli NCIM 2931 assessed as diameter of growth inhibition zone at 1000 ug/ml after 20 hrs by agar disc diffusion method; type: functional; conditions: NCIM 2931, 20 h, read-out: DIZ
Candida albicans [7] = test: Antifungal activity against Candida albicans MTCC 183 assessed as diameter of growth inhibition zone at 1000 ug/ml after 4 days by agar disc diffusion method; type: functional
Bacillus cereus [8] = test: Antibacterial activity against Bacillus cereus NCIM 2155 assessed as diameter of growth inhibition zone at 500 ug/ml after 20 hrs by agar disc diffusion method; type: functional
Pseudomonas aeruginosa [9] = test: Antibacterial activity against Pseudomonas aeruginosa MTCC 4727 assessed as diameter of growth inhibition zone at 500 ug/ml after 20 hrs by agar disc diffusion method; type: functional; conditions: MTCC 4727, 20 h, read-out: DIZ
Pseudomonas aeruginosa [10] = test: Antibacterial activity against Pseudomonas aeruginosa MTCC 4727 assessed as diameter of growth inhibition zone at 1000 ug/ml after 20 hrs by agar disc diffusion method; type: functional; conditions: MTCC 4727, 20 h, read-out: DIZ
Escherichia coli [11] = test: Antibacterial activity against Escherichia coli NCIM 2931 assessed as diameter of growth inhibition zone at 500 ug/ml after 20 hrs by agar disc diffusion method; type: functional; conditions: NCIM 2931, 20 h, read-out: DIZ
Staphylococcus aureus [12] = test: Antibacterial activity against Staphylococcus aureus MTCC 4102 assessed as growth inhibition after 24 hrs by broth microdilution method; type: functional, organism-based; conditions: MTCC 4102, 24 h
Saccharomyces cerevisiae [13] = test: Antifungal activity against Saccharomyces cerevisiae NCIM 3044 assessed as diameter of growth inhibition zone at 500 ug/ml after 4 days by agar disc diffusion method; type: functional

MIC (Staphylococcus aureus [12]): 200 µg/mL (≈ 392 µM)
SMILES: COc1cc(-c2cnc(N3CCC(C#N)CC3)c3nc(Cc4ccc(Cl)cc4Cl)[nH]c23)ccc1F
diameter of the inhibition zone (DIZ) (Candida albicans [1]): inactive
zone of inhibition at 500 µg/mL (Staphylococcus aureus [2]): 10.5 mm
zone of inhibition at 1000 µg/mL (Staphylococcus aureus [3]): 23 mm
diameter of the inhibition zone (DIZ) (Saccharomyces cerevisiae [4]): inactive
diameter of the inhibition zone (DIZ) (Bacillus cereus [5]): inactive
zone of inhibition at 1000 µg/mL (Escherichia coli [6]): 9 mm
diameter of the inhibition zone (DIZ) (Candida albicans [7]): inactive
diameter of the inhibition zone (DIZ) (Bacillus cereus [8]): inactive
zone of inhibition at 500 µg/mL (Pseudomonas aeruginosa [9]): 3.5 mm
zone of inhibition at 1000 µg/mL (Pseudomonas aeruginosa [10]): 8 mm
zone of inhibition at 500 µg/mL (Escherichia coli [11]): 4.1 mm
IC50 (Staphylococcus aureus [12]): 100 µg/mL (≈ 196 µM)
diameter of the inhibition zone (DIZ) (Saccharomyces cerevisiae [13]): inactive
